Assay results reported in ChEMBL document CHEMBL1201862, “PubChem BioAssay data set” (2004).
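48-hour exposure; five concentrations; linearly interpolated endpoints. GI50: concentration for 50% inhibition of growth.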 Activity calls are given as the source filed them. Rule as the data show it: active = GI50 up to about 1.1 µM and inactive = higher.

Key:
Experiment in all cases: NCI tumour cell line growth inhibition, 48 h
786-0 = tested on: 786-0
A498 = tested on: A498
A549 = tested on: A549
ACHN = tested on: ACHN
BT-549 = tested on: BT-549
CAKI-1 = tested on: CAKI-1
CCRF-CEM = tested on: CCRF-CEM
COLO 205 = tested on: COLO 205
DU-145 = tested on: DU-145
EKVX = tested on: EKVX
HCC 2998 = tested on: HCC 2998
HCT-116 = tested on: HCT-116
HCT-15 = tested on: HCT-15
HL-60 = tested on: HL-60
HOP-62 = tested on: HOP-62
HOP-92 = tested on: HOP-92
HT-29 = tested on: HT-29
Hs-578T = tested on: Hs-578T
IGROV-1 = tested on: IGROV-1
K562 = tested on: K562
KM12 = tested on: KM12
LOX IMVI = tested on: LOX IMVI
M14 = tested on: M14
MCF7 = tested on: MCF7
MDA-MB-231 = tested on: MDA-MB-231
MDA-MB-435 = tested on: MDA-MB-435
MDA-N = tested on: MDA-N
MOLT-4 = tested on: MOLT-4
Malme-3M = tested on: Malme-3M
NCI-H226 = tested on: NCI-H226
NCI-H23 = tested on: NCI-H23
NCI-H460 = tested on: NCI-H460
NCI-H522 = tested on: NCI-H522
NCI/ADR-RES = tested on: NCI/ADR-RES
OVCAR-3 = tested on: OVCAR-3
OVCAR-4 = tested on: OVCAR-4
OVCAR-5 = tested on: OVCAR-5
OVCAR-8 = tested on: OVCAR-8
PC-3 = tested on: PC-3
RPMI-8226 = tested on: RPMI-8226
RXF 393 = tested on: RXF 393
SF-268 = tested on: SF-268
SF-295 = tested on: SF-295
SF-539 = tested on: SF-539
SK-MEL-28 = tested on: SK-MEL-28
SK-MEL-2 = tested on: SK-MEL-2
SK-MEL-5 = tested on: SK-MEL-5
SK-OV-3 = tested on: SK-OV-3
SN12C = tested on: SN12C
SNB-19 = tested on: SNB-19
SNB-75 = tested on: SNB-75
SR = tested on: SR
SW-620 = tested on: SW-620
T47D = tested on: T47D
TK-10 = tested on: TK-10
U-251 = tested on: U-251
UACC-257 = tested on: UACC-257
UACC-62 = tested on: UACC-62
UO-31 = tested on: UO-31

SMILES: CSC(=S)Nc1cc(C)cc(C)n1
- GI50 (786-0): 22.4 µM (inactive)
- GI50 (A498): > 100 µM (inactive)
- GI50 (A549): > 31.6 µM (inactive)
- GI50 (ACHN): > 31.6 µM (inactive)
- GI50 (BT-549): > 100 µM (inactive)
- GI50 (CAKI-1): > 31.6 µM (inactive)
- GI50 (CCRF-CEM): > 31.6 µM (inactive)
- GI50 (COLO 205): > 31.6 µM (inactive)
- GI50 (DU-145): > 31.6 µM (inactive)
- GI50 (EKVX): > 31.6 µM (inactive)
- GI50 (HCC 2998): > 31.6 µM (inactive)
- GI50 (HCT-116): > 10 µM (inactive)
- GI50 (HCT-15): > 31.6 µM
- GI50 (HL-60): > 31.6 µM (inactive)
- GI50 (HOP-62): > 100 µM (inactive)
- GI50 (HOP-92): > 31.6 µM (inactive)
- GI50 (HT-29): > 31.6 µM (inactive)
- GI50 (Hs-578T): > 31.6 µM (inactive)
- GI50 (IGROV-1): > 100 µM (inactive)
- GI50 (K562): > 31.6 µM (inactive)
- GI50 (KM12): > 31.6 µM (inactive)
- GI50 (LOX IMVI): > 31.6 µM (inactive)
- GI50 (M14): > 31.6 µM (inactive)
- GI50 (MCF7): > 31.6 µM (inactive)
- GI50 (MDA-MB-231): > 100 µM (inactive)
- GI50 (MDA-MB-435): > 31.6 µM (inactive)
- GI50 (MDA-N): > 31.6 µM (inactive)
- GI50 (MOLT-4): > 31.6 µM (inactive)
- GI50 (Malme-3M): > 31.6 µM (inactive)
- GI50 (NCI-H226): > 31.6 µM (inactive)
- GI50 (NCI-H23): > 31.6 µM (inactive)
- GI50 (NCI-H460): > 31.6 µM (inactive)
- GI50 (NCI-H522): 18.7 µM (inactive)
- GI50 (NCI/ADR-RES): > 31.6 µM (inactive)
- GI50 (OVCAR-3): > 31.6 µM (inactive)
- GI50 (OVCAR-4): > 31.6 µM (inactive)
- GI50 (OVCAR-5): > 31.6 µM (inactive)
- GI50 (OVCAR-8): > 31.6 µM (inactive)
- GI50 (PC-3): > 31.6 µM (inactive)
- GI50 (RPMI-8226): > 31.6 µM (inactive)
- GI50 (RXF 393): > 31.6 µM (inactive)
- GI50 (SF-268): > 31.6 µM (inactive)
- GI50 (SF-295): > 31.6 µM (inactive)
- GI50 (SF-539): > 100 µM (inactive)
- GI50 (SK-MEL-28): > 31.6 µM (inactive)
- GI50 (SK-MEL-2): > 31.6 µM (inactive)
- GI50 (SK-MEL-5): > 66.4 µM (inactive)
- GI50 (SK-OV-3): > 31.6 µM (inactive)
- GI50 (SN12C): > 31.6 µM (inactive)
- GI50 (SNB-19): > 31.6 µM (inactive)
- GI50 (SNB-75): > 10 µM (inactive)
- GI50 (SR): > 10 µM (inactive)
- GI50 (SW-620): > 31.6 µM (inactive)
- GI50 (T47D): > 31.6 µM (inactive)
- GI50 (TK-10): > 31.6 µM (inactive)
- GI50 (U-251): > 31.6 µM (inactive)
- GI50 (UACC-257): > 31.6 µM (inactive)
- GI50 (UACC-62): > 31.6 µM (inactive)
- GI50 (UO-31): > 31.6 µM (inactive)
